{"source": "patent US11260023B2", "about": "“Topical compositions containing rofecoxib and methods of making and using the same” (BRIORI BIOTECH, LLC, priority 2020, dated 2022)", "assay": "Solubility of rofecoxib in solvent systems containing one solvent, UV spectrophotometry", "type": "physicochemical", "procedure": "The solubility of rofecoxib was tested in a variety of solvent systems by UV spectrophotometry. A UV spectrophotometry method of evaluating the solubility of rofecoxib was used to determine the solubility of rofecoxib in various solvent systems. Erk et al. describes this method and is incorporated by reference herein in its entirety: Erk et al. Pharmazie. 2004 June; 59(6):453-6.\n100 mg of rofecoxib was dissolved in 100 ml of methanol. Dilutions of the stock solution were made into methanol to give a final rofecoxib concentration of 5 μg/ml, 10 μg/ml, 20 μg/ml, 25 μg/ml, 30 μg/ml, 35 μg/ml, 40 μg/ml, 45 μg/ml, and 50 μg/ml. A UV spectrophotometer was utilized to read the absorbance of the samples 279.1 nm. Using Beer's law, a value for the extinction coefficient for rofecoxib was obtained. The value of the extinction coefficient of rofecoxib was determined to be 29.06 and was utilized in future experiments to determine the concentration of rofecoxib in various solvent systems.\n100 mg of rofecoxib was added to 1 gram of each solvent. […] The mixtures of rofecoxib and solvents were vortexed for one minute and left at room temperature for one hour. The mixture was vortexed a second time and then left at room temperature overnight. The next morning the samples were vortexed a third time and then centrifuged at 12 k for 5 minutes. The excipient/rofecoxib mixture was transferred to a new tube being careful to not take any of the pellet. Serial dilutions of the rofecoxib solvent solutions were made (1:100 v:v), (1:1000 v/v), and (1:2000 v/v). Solvents without rofecoxib were diluted with methanol and used to blank a Beckman DU-7400 spectrophotometer. The absorbance of the samples was determined at a wavelength of 279.1 nm. The concentration of rofecoxib dissolved in the solvent was calculated using Beer's Law. Concentrations were converted from units of mg/mL to units of mg/g according to the following procedure:\n(a) The volume of 1 g of solvent times the calculated mg/ml rofecoxib equals total mg of rofecoxib in 1 g of solvent. e.g. 1 g of a solvent that has a density of 1.05 g/mL is 952 μL. A rofecoxib solution with a concentration of rofecoxib of […] contains 28.17 mg of rofecoxib in 952 μL of solvent.\n(b) To calculate the total volume, a mg of rofecoxib is assumed to equal to 1 μl of volume. Add volume of the solvent to the total weight of rofecoxib. 28.17 mg+1000 mg of solvent=1028.17 mg.\n(c) To calculate the w/w divide the mg of rofecoxib 28.71 mg by the total weight of rofecoxib with solvent 1028.71 mg and multiply times 1000 mg to get the w/w […]/1028.71 mg*1000 mg=28.62 mg/g of solvent.", "data": [{"smiles": "CS(=O)(=O)c1ccc(C2=C(c3ccccc3)C(=O)OC2)cc1", "note": "[Rofecoxib]", "values": [{"measurement": "Solubility of Rofecoxib", "setting": "in 2-Methylpentane-2,4-diol", "result": 0.59, "unit": "mg/g"}, {"measurement": "Solubility of Rofecoxib", "setting": "in Acetone", "result": 23.58, "unit": "mg/g"}, {"measurement": "Solubility of Rofecoxib", "setting": "in Benzyl Alcohol", "result": 19.54, "unit": "mg/g"}, {"measurement": "Solubility of Rofecoxib", "setting": "in Diethyl sebacate", "result": 1.3, "unit": "mg/g"}, {"measurement": "Solubility of Rofecoxib", "setting": "in Diethylene glycol monoethyl ether", "result": 9.07, "unit": "mg/g"}, {"measurement": "Solubility of Rofecoxib", "setting": "in Diisopropyl adipate", "result": 2.04, "unit": "mg/g"}, {"measurement": "Solubility of Rofecoxib", "setting": "in Dimethyl Isosorbide", "result": 39.14, "unit": "mg/g"}, {"measurement": "Solubility of Rofecoxib", "setting": "in Dimethyl Sulfoxide", "result": 143.6, "unit": "mg/g"}, {"measurement": "Solubility of Rofecoxib", "setting": "in Ethyl acetate", "result": 5.5, "unit": "mg/g"}, {"measurement": "Solubility of Rofecoxib", "setting": "in Isopropyl tetradecanoate", "result": 0.0017, "unit": "mg/g"}, {"measurement": "Solubility of Rofecoxib", "setting": "in N-methyl-2-pyrrolidone", "result": 198, "unit": "mg/g"}, {"measurement": "Solubility of Rofecoxib", "setting": "in Oleic acid", "result": 0.402, "unit": "mg/g"}, {"measurement": "Solubility of Rofecoxib", "setting": "in Polyethylene glycol-400 (PEG)", "result": 13.14, "unit": "mg/g"}, {"measurement": "Solubility of Rofecoxib", "setting": "in Polysorbate 20 (PS20)", "result": 9.18, "unit": "mg/g"}, {"measurement": "Solubility of Rofecoxib", "setting": "in Polysorbate 80 (PS80)", "result": 9.71, "unit": "mg/g"}, {"measurement": "Solubility of Rofecoxib", "setting": "in Propylene Carbonate", "result": 49.43, "unit": "mg/g"}, {"measurement": "Solubility of Rofecoxib", "setting": "in Propylene Glycol", "result": 0.302, "unit": "mg/g"}, {"measurement": "Solubility of Rofecoxib", "setting": "in Propylene glycol diacetate", "result": 6.93, "unit": "mg/g"}, {"measurement": "Solubility of Rofecoxib", "setting": "in alpha-Terpineol 95.0+ %", "result": 0.313, "unit": "mg/g"}]}]}
